target: T1, PDE4B catalytic zone (PDE4Bcat) (Homo sapiens, UniProt Q07343); experiment: Phosphodiesterase 4 inhibitory activity ([3H]-cAMP, recombinant PDE4Bcat); format: biochemical; conditions: 30° C. 20 minutes, read-out: IC50 (μmol/L) PDE4
T1 construct: made in house; host or cells: Sf9 insect cells (baculovirus, Bac-to-Bac / Gateway)
T1 sequence (Q07343 330-659 limits assumed): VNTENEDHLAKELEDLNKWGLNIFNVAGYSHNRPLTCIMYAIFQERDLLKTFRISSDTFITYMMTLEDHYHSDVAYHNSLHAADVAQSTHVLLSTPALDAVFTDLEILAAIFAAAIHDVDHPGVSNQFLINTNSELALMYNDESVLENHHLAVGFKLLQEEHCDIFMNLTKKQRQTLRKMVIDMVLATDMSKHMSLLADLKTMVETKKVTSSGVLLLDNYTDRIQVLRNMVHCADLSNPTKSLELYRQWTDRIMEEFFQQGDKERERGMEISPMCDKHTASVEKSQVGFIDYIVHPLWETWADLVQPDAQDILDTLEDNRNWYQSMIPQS

`COc1ccc(-c2ccc3[nH]c(=O)ccc3c2)c2cc(C(F)(F)F)nn12` [Example 50, 6-(7-Methoxy-2-trifluoromethylpyrazolo[1,5-a]pyridin-4-yl)quinolin-2(1H)-one] and `Nc1ccc(-c2ccc3[nH]c(=O)ccc3c2)c2cc(C(F)(F)F)nn12` [Example 140, 6-(7-Amino-2-trifluoromethylpyrazolo[1,5-a]pyridin-4-yl)quinolin-2(1H)-one] cannot be ordered by IC50: < 0.01 µmol/L for the first, < 0.01 µmol/L for the second.

`COc1ccc(-c2cc(=O)[nH]c3ccccc23)c2cc(C(F)(F)F)nn12` [Example 51, 4-(7-Methoxy-2-trifluoromethylpyrazolo[1,5-a]pyridin-4-yl)quinolin-2(1H)-one] and `COc1ccc(-c2cccc3c(=O)[nH]ccc23)c2cc(C(F)(F)F)nn12` [Example 52, 5-(7-Methoxy-2-trifluoromethylpyrazolo[1,5-a]pyridin-4-yl)iso quinolin-1(2H)-one] fall in the same range of IC50: 0.01 to 0.1 µmol/L for the first, 0.01 to 0.1 µmol/L for the second.

`COc1ccc(-c2ccc3cc[nH]c(=O)c3c2)c2cc(C(F)(F)F)nn12` [Example 54, 7-(7-Methoxy-2-trifluoromethylpyrazolo[1,5-a]pyridin-4-yl)iso quinolin-1(2H)-one] and `COc1ccc(-c2ccc3c(ccc(=O)n3C)c2)c2cc(C(F)(F)F)nn12` [Example 91, 6-(7-Methoxy-2-trifluoromethylpyrazolo[1,5-a]pyridin-4-yl)-1-methyl quinolin-2(1H)-one] cannot be ordered by IC50: < 0.01 µmol/L for the first, < 0.01 µmol/L for the second.

`COc1ccc(-c2ccc3c(c2)CCC(=O)N3)c2cc(C(F)(F)F)nn12` [Example 56, 6-(7-Methoxy-2-trifluoromethylpyrazolo[1,5-a]pyridin-4-yl)-3,4-dihydroquinolin-2(1H)-one] and `COc1ccc(-c2ccc3c(c2)CC(=O)N3)c2cc(C(F)(F)F)nn12` [Example 57, 5-(7-Methoxy-2-trifluoromethylpyrazolo[1,5-a]pyridin-4-yl)indolin-2-one] fall in the same range of IC50: 0.01 to 0.1 µmol/L for the first, 0.01 to 0.1 µmol/L for the second.

`COc1ccc(-c2ccc3[nH]c(=O)ccc3c2)c2c(Cl)c(C(F)(F)F)nn12` [Example 61, 6-(3-Chloro-7-methoxy-2-trifluoromethylpyrazolo[1,5-a]pyridin-4-yl)quinolin-2(1H)-one] and `CNc1ccc(-c2ccc3[nH]c(=O)ccc3c2)c2c(Cl)c(C(F)(F)F)nn12` [Example 65, 6-(3-Chloro-7-methylamino-2-trifluoromethylpyrazolo[1,5-a]pyridin-4-yl)quinolin-2(1H)-one] cannot be ordered by IC50: < 0.01 µmol/L for the first, < 0.01 µmol/L for the second.

`CNc1ccc(-c2ccc3c(c2)CCNC3=O)c2c(Cl)c(C(F)(F)F)nn12` [Example 66] and `CNc1ccc(-c2ccc3c(=O)[nH]cc(Cl)c3c2)c2c(Cl)c(C(F)(F)F)nn12` [Example 139, 4-Chloro-6-(3-chloro-7-(methylamino)-2-trifluoromethylpyrazolo[1,5-a]pyridin-4-yl)isoquinolin-1(2H)-one] cannot be ordered by IC50: < 0.01 µmol/L for the first, < 0.01 µmol/L for the second.

`CCc1ccc2c(-c3ccc4[nH]c(=O)ccc4c3)ccc(OC)c2n1` [Example 67, 2-Ethyl-8-methoxy-5,6′-biquinolin-2′(1′H)-one] and `COc1ccc(-c2ccc3[nH]c(=O)ccc3c2)c2ccc(C)nc12` [Example 68, 8-Methoxy-2-methyl-5,6′-biquinolin-2′(1′H)-one] fall in the same range of IC50: 0.01 to 0.1 µmol/L for the first, 0.01 to 0.1 µmol/L for the second.

First: COc1ccc(-c2ccc3[nH]c(=O)ccc3c2)c2ccc(C(F)(F)F)nc12 [Example 69, 8-Methoxy-2-trifluoromethyl-5,6′-biquinolin-2′(1′H)-one]
Second: COc1ccc(-c2ccc3[nH]c(=O)ccc3c2)c2sc(C(F)(F)F)nc12 [Example 71, 6-(4-Methoxy-2-trifluoromethylbenzo[d]thiazol-7-yl)quinolin-2(1H)-one]
The IC50 of the first is higher: 0.01 to 0.1 µmol/L for the first, < 0.01 µmol/L for the second. The second is the more potent here.

Compared with `COc1ccc(-c2ccc3[nH]c(=O)ccc3c2)c2nc(C(F)(F)F)nn12` [Example 70, 6-(5-Methoxy-2-trifluoromethyl[1,2,4]triazolo[1,5-a]pyridin-8-yl) quinolin-2(1H)-one], `CCc1cc2c(-c3ccc4[nH]c(=O)ccc4c3)ccc(OC)n2n1` [Example 87, 6-(2-Ethyl-7-methoxypyrazolo[1,5-a]pyridin-4-yl)quinolin-2(1H)-one] is higher in IC50: < 0.01 µmol/L for the first, 0.01 to 0.1 µmol/L for the second.

`COc1ccc(-c2ccc3[nH]c(=O)ccc3c2)c2c1OCNC2=O` [Example 72, 8-Methoxy-5-(2-oxo-1,2-dihydroquinolin-6-yl)-2H-benzo[e][1,3]oxazin-4-(3H)-one] and `COc1ccc(-c2ccc3[nH]c(=O)ccc3c2)c2c1OCC(=O)N2` [Example 74, 8-Methoxy-5-(2-oxo-1,2-dihydroquinolin-6-yl)-2H-benzo[b][1,4]oxazin-3(4H)-one] fall in the same range of IC50: 0.01 to 0.1 µmol/L for the first, 0.01 to 0.1 µmol/L for the second.

`COc1ccc(-c2ccc3c(=O)[nH]ccc3c2)c2cccnc12` [Example 80, 6-(8-Methoxyquinolin-5-yl)isoquinolin-1(2H)-one] and `COc1ccc(-c2ccc3[nH]c(=O)ccc3c2)c2cccnc12` [Example 120, 6-(8-Methoxyquinolin-5-yl)quinolin-2(1H)-one] fall in the same range of IC50: 0.01 to 0.1 µmol/L for the first, 0.01 to 0.1 µmol/L for the second.

First: CCc1ccc2c(-c3ccc4cc[nH]c(=O)c4c3)ccc(OC)c2n1 [Example 83, 7-(2-Ethyl-8-methoxyquinolin-5-yl)isoquinolin-1(2H)-one]
Second: CCc1nc2c(OC)ccc(-c3ccc4[nH]c(=O)ccc4c3)c2o1 [Example 112, 6-(2-Ethyl-4-methoxybenzo[d]oxazol-7-yl)quinolin-2(1H)-one]
The IC50 of the first is higher: 0.01 to 0.1 µmol/L for the first, < 0.01 µmol/L for the second. The second is the more potent here.

First: COc1ccc(-c2ccc3[nH]c(=O)ccc3c2)c2nccnc12 [Example 86, 6-(8-Methoxyquinoxalin-5-yl)quinolin-2(1H)-one]
Second: COc1ccc(-c2ccc3[nH]c(=O)ccc3c2)c2cncnc12 [Example 88, 6-(8-methoxyquinazolin-5-yl)quinolin-2(1H)-one]
The IC50 of the first is lower: < 0.01 µmol/L for the first, 0.01 to 0.1 µmol/L for the second. The first is the more potent here.

`COc1ccc(-c2ccc3[nH]c(=O)ccc3c2)n2cc(C(F)(F)F)nc12` [Example 90, 6-(8-Methoxy-2-trifluoromethylimidazo[1,2-a]pyridin-5-yl)quinolin-2(1H)-one] and `COc1ccc(-c2ccc3[nH]c(=O)ccc3c2)c2cc(C(F)(F)F)sc12` [Example 111] fall in the same range of IC50: 0.01 to 0.1 µmol/L for the first, 0.01 to 0.1 µmol/L for the second.

`CCOC(=O)Cn1c(=O)ccc2cc(-c3ccc(OC)n4nc(C(F)(F)F)cc34)ccc21` [Example 92, Ethyl 2-(6-(7-methoxy-2-trifluoromethylpyrazolo[1,5-a]pyridin-4-yl)-2-oxo-quinolin-2(1H)-yl)acetate] and `COc1ccc(-c2ccc3c(ccc(=O)n3CC(=O)O)c2)c2cc(C(F)(F)F)nn12` [Example 93, 2-(6-(7-Methoxy-2-trifluoromethylpyrazolo[1,5-a]pyridin-4-yl)-2-oxoquinolin-2(1H)-yl)acetic acid] fall in the same range of IC50: 0.01 to 0.1 µmol/L for the first, 0.01 to 0.1 µmol/L for the second.

First: COc1ccc(-c2ccc3c(ccc(=O)n3Cc3ccccc3)c2)c2cc(C(F)(F)F)nn12 [Example 94, 1-Benzyl-6-(7-methoxy-2-trifluoromethylpyrazolo[1,5-a]pyridin-4-yl)quinolin-2(1H)-one]
Second: COc1ccc(-c2ccc3c(c2)CC(C)NC3=O)c2cc(C(F)(F)F)nn12 (stereo not shown) [Example 122, 6-(7-Methoxy-2-trifluoromethylpyrazolo[1,5-a]pyridin-4-yl)-3-methyl-3,4-dihydroisoquinolin-1(2H)-one]
The IC50 of the first is lower: < 0.01 µmol/L for the first, 0.01 to 0.1 µmol/L for the second.

`COc1ccc(-c2ccc3[nH]c(=O)ccc3c2)c2cc(C3CC3)nn12` [Example 114, 6-(2-Cyclopropyl-7-methoxypyrazolo[1,5-a]pyridin-4-yl)quinolin-2(1H)-one] and `COc1ccc(-c2ccc3[nH]c(=O)ccc3c2)c2cc(C(F)(F)F)oc12` [Example 119, 6-(7-Methoxy-2-trifluoromethylbenzofuran-4-yl)quinolin-2(1H)-one] cannot be ordered by IC50: < 0.01 µmol/L for the first, < 0.01 µmol/L for the second.

`COc1ccc(-c2ccc3c(c2)CCC(=O)N3)c2c(Cl)c(C(F)(F)F)nn12` [Example 116, 6-(3-Chloro-7-methoxy-2-trifluoromethylpyrazolo[1,5-a]pyridin-4-yl)-3,4-dihydroquinolin-2(1H)-one] and `COc1ccc(-c2ccc3c(c2)CCC(=O)N3C)c2c(Cl)c(C(F)(F)F)nn12` [Example 117, 6-(3-Chloro-7-methoxy-2-trifluoromethylpyrazolo[1,5-a]pyridin-4-yl)-1-methyl-3,4-dihydroquinolin-2(1H)-one] fall in the same range of IC50: 0.01 to 0.1 µmol/L for the first, 0.01 to 0.1 µmol/L for the second.

First: COc1ccc(-c2ccc3[nH]c(=O)ccc3c2)c2[nH]c(C(F)(F)F)nc12 [Example 118, 6-(4-Methoxy-2-trifluoromethyl-1H-benzo[d]imidazol-7-yl)quinolin-2(1H)-one; or 6-(7-methoxy-2-trifluoromethyl-1H-benzo[d]imidazol-4-yl)quinolin-2(1H)-one]
Second: CNc1ccc(-c2ccc3c(ccc(=O)n3C)c2)c2c(Cl)c(C(F)(F)F)nn12 [Example 137]
The IC50 of the first is higher: 0.01 to 0.1 µmol/L for the first, < 0.01 µmol/L for the second. The second is the more potent here.

`COc1ccc(-c2ccc3c(=O)[nH]cc(Cl)c3c2)c2c(Cl)c(C(F)(F)F)nn12` [Example 125, 4-Chloro-6-(3-chloro-7-methoxy-2-trifluoromethylpyrazolo[1,5-a]pyridin-4-yl)isoquinolin-1(2H)-one] and `COc1ccc(-c2ccc3c(=O)[nH]cc(Cl)c3c2)n2c(Cl)c(C(F)(F)F)nc12` [Example 126, 4-Chloro-6-(3-chloro-8-methoxy-2-trifluoromethylimidazo[1,2-a]pyridin-5-yl)isoquinolin-1(2H)-one] cannot be ordered by IC50: < 0.01 µmol/L for the first, < 0.01 µmol/L for the second.

First: CNc1ccc(-c2ccc3c(=O)[nH]cc(Cl)c3c2)c2cc(C(F)(F)F)nn12 [Example 138, 4-Chloro-6-(7-(methylamino)-2-trifluoromethylpyrazolo[1,5-a]pyridin-4-yl)isoquinolin-1(2H)-one]
Second: Nc1ccc(-c2ccc3c(=O)[nH]cc(Cl)c3c2)c2cc(C(F)(F)F)nn12 [Example 141, 6-(7-Amino-2-trifluoromethylpyrazolo[1,5-a]pyridin-4-yl)-4-chloro isoquinolin-1(2H)-one]
The IC50 of the first is lower: < 0.01 µmol/L for the first, 0.01 to 0.1 µmol/L for the second. The first is the more potent here.

`CNc1ccc(-c2ccc3c(=O)[nH]cc(Cl)c3c2)n2cc(C(F)(F)F)nc12` [Example 144, 4-Chloro-6-(8-(methylamino)-2-trifluoromethylimidazo[1,2-a]pyridin-5-yl)isoquinolin-1(2H)-one] was tested, and the IC50 was < 0.01 µmol/L.

— US20110178041A1, “HETEROCYCLIC BIARYL DERIVATIVE AND PDE INHIBITOR COMPRISING SAME AS ACTIVE INGREDIENT” (priority 2008, published 2011)
